Experiments:
[1] = test system: sMIC; assay: Serum sMIC measured by ELISA longitudinally during IM treatment of GIST patients; type: in vivo, human; settings: followed during treatment
Experimental: 49 GIST patients were treated with imatinib (IM) from May 1994 until October 2010 (BFR14 cohort). Patients' samples were provided by the Gustave Roussy Institute (Villejuif, France) and the Centre Léon Bérard (Lyon). Sera were drained from blood drawn during control visits. Clinical responses were assessed by computed tomography (CT) scan and the responses were classified according to the RECIST criteria. GIST tumor samples were obtained following surgery carried out at the Gustave Roussy Institute (Villejuif, France).
(§1) sB7H6 and sMIC were assessed from the sera of patients by the ELISA method.

[2] = test system: sB7H6; assay: Serum sB7H6 measured by ELISA longitudinally during IM treatment of GIST patients; type: in vivo, human
Experimental: 49 GIST patients were treated with imatinib (IM) from May 1994 until October 2010 (BFR14 cohort). Patients' samples were provided by the Gustave Roussy Institute (Villejuif, France) and the Centre Léon Bérard (Lyon). Sera were drained from blood drawn during control visits. Clinical responses were assessed by computed tomography (CT) scan and the responses were classified according to the RECIST criteria.
as §1
Soluble B7-H6 detection was assessed from sera of patients by the ELISA method: 17B1.3 mAbs was coated at 5 μg/ml in 0.1 M NaHCO3 solution overnight at 4° C. in 96-well Nunc-Immuno™ plates (Thermo Scientific). Blocking solution (PBS supplemented with 3% BSA) was then added overnight at 4° C. After discarding this solution, serial dilutions of sB7-H6 were incubated for 3 hours at room temperature. Then biotin-conjugated 9G9.2 was added to each well (1 μg/ml in PBS supplemented with 1% BSA) for 1 hour at room temperature. Anti-biotin HRP (Sigma-Aldrich) was then added for 1 hour at room temperature. Finally, BD Optia TMB substrate (BD Biosciences) was used to reveal the staining and left to incubate for 15-30 minutes at room temperature. The reaction was stopped with 1 M HCl and the optic density (OD) at 450 nm was read with Apollo LB 911 from Berthold.

Structure (SMILES): Cc1ccc(NC(=O)c2ccc(CN3CCN(C)CC3)cc2)cc1Nc1nccc(-c2cccnc2)n1 [IM, imatinib]
- levels of sMIC in sera following IM treatment [1]: tend to decrease
- levels of sB7H6 in sera after 1 year of IM treatment ([2]; after 1 year of treatment): not detected
- levels of sB7H6 in sera during IM treatment ([2]; followed with time of treatment): decreased with the time of treatment
